The source of these data is patent US20090221624A1, “4-AMINOQUINOLINE COMPOUNDS FOR TREATING VIRUS-RELATED CONDITIONS” (priority 2005, published 2009).

For series [1], the system named is EBOV minigenome. In words: microbe, parasite or virus in culture. It is filed as cell-based, Ebola virus. The settings on record: Zaire ebolavirus; for inhibition at 25 µM: 24 h, read-out: EBOV Inh; for EC50: read-out: EBOV EC50.
Series [2] deals with YFV (YF-hRuPac cells). Nature of the series: microbe, parasite or virus in culture. The series is classed as cell-based, yellow fever virus. The settings on record: for inhibition at 25 µM / EC50: Yellow fever virus; for inhibition at 25 µM: 24 h, read-out: YFV Inh; for EC50: read-out: YFV EC50.
The subject of series [3] is DNG (D2-hRuPac cells). Nature of the series: DNG antiviral activity, D2-hRuPac cells, Renilla luciferase. The series is classed as cell-based, Dengue fever virus. The note with it: Dengue virus, secondary screening.
Series [4] is described as follows: in vitro.
Series [5] deals with RSV minigenome. Nature of the series: RSV minigenome-dependent β-galactosidase expression assay (RSV β-Gal). The series is classed as cell-based, respiratory syncytial virus. The settings on record: for EC50 / inhibition at 25 µM: human respiratory syncytial virus; for EC50: Secondary Data, RSV, read-out: RSV EC50; for inhibition at 25 µM: primary screening, 25 μM final concentration, 24 hours, percent inhibition of viral replication, read-out: RSV Inh; for RSV TI: therapeutic index CC50/EC50, RSV.

Series [6] relates to WNV (WN-hRuPac cells). In words: WNV antiviral activity, WN-hRuPac cells, Renilla luciferase. The series is classed as cell-based, West Nile virus. The note with it: for EC50 / inhibition at 25 µM: West Nile virus; for EC50: Secondary Data, WNV, read-out: WNV EC50; for inhibition at 25 µM: primary screening, 25 μM final concentration, 24 hours, percent inhibition of viral replication, read-out: WNV Inh; for WNV TI: therapeutic index CC50/EC50, WNV.

Series [7] concerns HCV replicon (Clone A cells, Huh7, subgenomic hepatits C virus RNA). In words: HCV Neo screening assay (HCV replicon, NPTII ELISA). It is filed as cell-based, hepatitis C virus. The note with it: for EC50 / inhibition at 25 µM: Hepatitis C virus, Huh-7; for EC50: Secondary Data, HCV; for inhibition at 25 µM: primary screening, 25 μM final concentration, 24 hours, percent inhibition of viral replication, read-out: HCV Inh; for HCV TI: therapeutic index CC50/EC50, HCV. (A replicon is a self-replicating genome or part of one, used to study replication in cells.)

The test system of series [8] is SINV (SR19-F-luc cells). In words: SINV antiviral activity, SR19-F-luc cells, Firefly luciferase. The series is classed as cell-based. The settings on record: Sindbis virus; for inhibition at 25 µM: primary screening, 25 μM final concentration, 24 hours, percent inhibition of viral replication, read-out: SINV Inh; for EC50: secondary screening, SR19-F-luc cells.

As a reminder, the EC50 is the midpoint of the concentration-response curve.

Turning to `Cc1ccc2nc3c(c(Nc4ccc(N5CCOCC5)cc4)c2c1)CCC3` [Compound 21], the inhibition at 25 µM in series [1] came to 46.5%; in series [2], 63.1%; in series [5], 99.4%; in series [6] it was 62.7%; in series [7] it was 159%; in series [8], 69.7%. Also, the EC50 in series [1] turned out to be 47.9 µM; in series [2], 6.26 µM; in series [3], 20.2 µM; in series [5] it was 4.16 µM; in series [6], 9.62 µM; in series [7] it was 8.09 µM. The same molecule yielded an EC50 in series [8] of 12.1 µM. Further, the “YFV TI” value in series [2] turned out to be 7.16. For the same molecule, the CC50 in series [4] (DNG CC50) came to 44.8 µM; in series [4] (EBOV CC50) it was 44.8 µM; in series [4] (HCV CC50), 8.02 µM; in series [4] (RSV CC50), 44.8 µM; in series [4] (SINV CC50) it was 44.8 µM; in series [4] (WNV CC50), 44.8 µM. In addition, the CC50 in series [4] (YFV CC50) was 44.8 µM. Besides, the “RSV TI” value in series [5] is reported as 10.77. In addition, the “WNV TI” value in series [6] was determined as 4.66. Also, in series [7], the “HCV TI” value was 0.99.
Take `COc1cccc2c(Nc3ccc4c(c3)OCCO4)cc(C)nc12` [Compound 22]: the inhibition at 25 µM in series [1] is 72%; in series [2] it was 29.9%; in series [5], 75.1%; in series [6] it was 48.8%; in series [7] it was 55.1%; in series [8], -22.7%. Besides, the EC50 is 5.31 µM in series [1]; no less than 75 µM in series [2]; 35.6 µM in series [3]; 3 µM in series [5]; 22.4 µM in series [6]; 18.1 µM in series [7]. In addition, the midpoint of the response in series [8], the EC50, lay at 72.3 µM. In series [2], the “YFV TI” value was 0.76. The CC50 in series [4] (DNG CC50) was 57.2 µM; in series [4] (EBOV CC50), 57.2 µM; in series [4] (HCV CC50) it was 13.7 µM; in series [4] (RSV CC50), 57.2 µM; in series [4] (SINV CC50), 57.2 µM; in series [4] (WNV CC50) it was 57.2 µM. This molecule had a CC50 in series [4] (YFV CC50) of 57.2 µM. Further, the “RSV TI” value in series [5] was found to be 19.08. Further, the “WNV TI” value in series [6] came out at 2.56. Also, the “HCV TI” value in series [7] was 0.75.
`Cc1ccc2nc(C)cc(NCc3ccco3)c2c1` [Compound 23]: the inhibition at 25 µM was -1.14% in series [1]; 86.3% in series [2]; 92% in series [5]; 70.3% in series [6]; 13.7% in series [7]; 22.8% in series [8]. The EC50 in series [1] is 75 µM; in series [2], 6.48 µM; in series [3] it was 25.8 µM; in series [5], 2.91 µM; in series [6], 3.76 µM; in series [8], no less than 75 µM. In series [2], the “YFV TI” value is on record as 8.94. Moreover, the CC50 is 57.9 µM in series [4] (DNG CC50); 57.9 µM in series [4] (EBOV CC50); no less than 75 µM in series [4] (HCV CC50); 57.9 µM in series [4] (RSV CC50); 57.9 µM in series [4] (SINV CC50); 57.9 µM in series [4] (WNV CC50). This molecule showed a CC50 in series [4] (YFV CC50) of 57.9 µM. Besides, in series [5], the “RSV TI” value is listed as 19.91. In addition, the “WNV TI” value in series [6] was 15.41.
With `CCc1ccccc1Nc1cc(C)nc2c(OC)cccc12` [Compound 24], the inhibition at 25 µM stood at 35.3% in series [1]; 67.3% in series [2]; 94.7% in series [5]; 73.9% in series [6]; 43.7% in series [7]; 64.1% in series [8]. Further, the EC50 in series [1] is 55.8 µM; in series [2], no less than 75 µM; in series [3], 27.7 µM; in series [5] it was 4.5 µM; in series [6] it was 25.6 µM; in series [8], 16.6 µM. In addition, the “YFV TI” value in series [2] is given as 0.77. Besides, the CC50 in series [4] (DNG CC50), in series [4] (EBOV CC50), in series [4] (RSV CC50), in series [4] (SINV CC50), in series [4] (WNV CC50) and in series [4] (YFV CC50) was 57.9 µM throughout. Moreover, the “RSV TI” value in series [5] is reported as 12.86. Also, the “WNV TI” value in series [6] was 2.26.
As for `COc1cccc2c(Nc3cccc([N+](=O)[O-])c3)cc(C)nc12` [Compound 25], the inhibition at 25 µM was found to be 99.4% in series [1]; 100% in series [2]; 99.9% in series [5]; 100% in series [6]; 159% in series [7]; 99.8% in series [8]. Moreover, the concentration for a half-maximal effect (EC50) was found to be 75 µM in series [1]; 3.67 µM in series [2]; 3.89 µM in series [3]; 4.73 µM in series [5]; 3.18 µM in series [6]; 4.85 µM in series [7]. In series [8], this molecule displayed an EC50 of 2.13 µM. Further, the “YFV TI” value in series [2] came to 6.25. For the same molecule, the CC50 came to 22.9 µM in series [4] (DNG CC50); 22.9 µM in series [4] (EBOV CC50); 12.7 µM in series [4] (HCV CC50); 22.9 µM in series [4] (RSV CC50); 22.9 µM in series [4] (SINV CC50); 22.9 µM in series [4] (WNV CC50). Moreover, the CC50 in series [4] (YFV CC50) worked out at 22.9 µM. The “RSV TI” value in series [5] was found to be 4.85. In addition, the “WNV TI” value in series [6] amounted to 7.22. In addition, in series [7], the “HCV TI” value is 2.62.
For `Cc1ccc2nc3c(c(Nc4cccc(C(F)(F)F)c4)c2c1)CCC3` [Compound 26], the inhibition at 25 µM in series [1] stood at 38.8%; in series [2], 77.2%; in series [5], 99.9%; in series [6], 62.2%; in series [7], 148%; in series [8], 53.3%. For the same molecule, the EC50 in series [1] stood at 75 µM; in series [2] it was 5.98 µM; in series [3], 48.2 µM; in series [5] it was 4.1 µM; in series [6] it was 3.71 µM; in series [7], 7.57 µM. Further, in series [8], the EC50 is 18.5 µM. Further, the “YFV TI” value in series [2] amounted to 8.88. The CC50 in series [4] (DNG CC50) turned out to be 53.1 µM; in series [4] (EBOV CC50), 53.1 µM; in series [4] (HCV CC50) it was 8.35 µM; in series [4] (RSV CC50) it was 53.1 µM; in series [4] (SINV CC50), 53.1 µM; in series [4] (WNV CC50) it was 53.1 µM. This molecule showed a CC50 in series [4] (YFV CC50) of 53.1 µM. For the same molecule, the “RSV TI” value in series [5] turned out to be 12.95. Also, the “WNV TI” value in series [6] is 14.32. Also, the “HCV TI” value in series [7] is on record as 1.1.
In the case of `Cc1ccc2nc3c(c(Nc4ccccc4)c2c1)CCC3` [Compound 27], the inhibition at 25 µM in series [1] is -4.87%; in series [2] it was 70.2%; in series [5], 92.2%; in series [6], 60%; in series [7], 113%; in series [8], 70.6%. Moreover, the EC50 in series [1] is 63.4 µM; in series [2], 11.8 µM; in series [3], 38.4 µM; in series [5] it was 6 µM; in series [6], 2.78 µM; in series [7] it was 14 µM. In series [8], this molecule had an EC50 of 1.88 µM. Further, the “YFV TI” value in series [2] was 4.3. The CC50 came to 50.7 µM in series [4] (DNG CC50); 50.7 µM in series [4] (EBOV CC50); 24.2 µM in series [4] (HCV CC50); 50.7 µM in series [4] (RSV CC50); 50.7 µM in series [4] (SINV CC50); 50.7 µM in series [4] (WNV CC50). In addition, the CC50 in series [4] (YFV CC50) was 50.7 µM. Further, in series [5], the “RSV TI” value is reported as 8.45. Further, in series [6], the “WNV TI” value is on record as 18.24. Besides, the “HCV TI” value in series [7] turned out to be 1.73.
In the case of `CCOC(=O)c1cnc2ccc(OC)cc2c1NCc1ccco1` [Compound 29], the inhibition at 25 µM in series [1] was 86.4%; in series [2] it was 98.4%; in series [5] it was 96.2%; in series [6] it was 105%; in series [7] it was 35.3%; in series [8], -33.8%. Moreover, the half-maximal effective concentration (EC50) in series [1] worked out at 8.75 µM; in series [2] it was 3.7 µM; in series [3], 7.43 µM; in series [5] it was 0.29 µM; in series [6], 3.36 µM; in series [8] it was 43 µM. For the same molecule, in series [2], the “YFV TI” value is listed as 5.97. Further, the CC50 was 22.1 µM in series [4] (DNG CC50); 22.1 µM in series [4] (EBOV CC50); no less than 75 µM in series [4] (HCV CC50); 22.1 µM in series [4] (RSV CC50); 22.1 µM in series [4] (SINV CC50); 22.1 µM in series [4] (WNV CC50). In series [4] (YFV CC50), the CC50 was found to be 22.1 µM. Further, the “RSV TI” value in series [5] was found to be 76.21. Further, the “WNV TI” value in series [6] was determined as 6.58.
